Results as given in patent publication US20100029643A1 (ASTRAZENECA AB, priority 2006, published 2010).

Target: T1, Edg-1/S1P1 receptor (Homo sapiens, UniProt P21453)
T1 construct: expressed in transfected cells; host or cells: human osteogenic sarcoma U2OS cells: Edg-1 Transfluor U2OS WT Clone #37 (assay I), Edg-1 Transfluor U2OS Clone #3 (assay II)
Assay: In vitro cell based receptor activation assay - Transfluor assay (assay I or II; beta-arrestin GFP relocalization after S1P stimulation)
Conditions: at 3.50 μM (titrated from top concentration 10 μM)
Text: The following assays can be used to measure the effects of the compounds of the present invention as S1P1/Edg1 inhibitors.
I. In Vitro Cell Based Receptor Activation Assay-Transfluor Assay
(§1) This cell-based assay was designed to assess the ability of small molecule antagonists to inhibit activation of the GPCR S1P1 in the presence of its cognate ligand S1P. The assay used technology initially developed by Norak Biosciences (Xsira Pharmaceutical) and presently owned by Molecular Devices. A human osteogenic sarcoma (U2OS) cell line overexpressing the Edg-1/S1P1) receptor as well as a beta-arrestin/green fluorescent protein (GFP) construct hereafter termed Edg-1 Transfluor U2OS WT Clone #37 was employed.
Using a high content screening approach (Cellomics Arrayscan), receptor activity was measured by assessment of the relocalization of beta-arrestin GFP in response to stimulation of Edg-1 by SIP. Specifically, Edg-1 Transfluor U2OS WT Clone #37 cells were plated at a density of 6250 cells in 40 μL medium per well in 384 well plastic bottomed microtiter plates (BD Falcon) and incubated overnight at 37° C./5% CO2. Prior to screening, compounds were dissolved in 100% dimethyl sulfoxide (DMSO) to a final stock concentration of 10 mM. Compounds were then serially diluted at 30× final concentration in Edg-1 Transfluor cell growth medium containing […] using the Tecan Genesis instrument. These 30× plates were then diluted to 6× final concentration with Edg-1 Transfluor growth medium just prior to dosing. Cells were then dosed with 10 μL per well of 6× compound dilutions or 6% DMSO and pre-incubated for 15 minutes at room temperature. Cell plates were dosed with 10 μL per well 6× S1P Edg-1 Transfluor growth medium, then incubated for 45 minutes at 37° C./5% CO2. Final concentration in the well of DMSO was 1%, compound was IX (3-fold, 9 point IC50 dilutions starting at 100 μM final concentration), and either 375 nM or […] SIP ligand. Cell plates were then fixed by adding 50 μL per well of 5% formaldehyde in 1× Dulbecco's phosphate buffered saline (DPBS) directly and incubating for 30 minutes at room temperature in darkness. Fixative was removed and replaced with 50 μL per well of 1×DPBS, after which cells were stained with 10 μg/mL final concentration of Hoechst 33342 (Molecular Probes) for 15 minutes at room temperature in darkness. Stain was then removed from the plates and replaced with 50 μL per well of 1×DPBS using the BioTek ExL405 plate washer. Plates were then sealed and analysed on the Cellomics Arrayscan using the GPCR signalling algorithm. EC50 values were then calculated using IDBS ActivityBase software.
II. In Vitro Cell Based Receptor Activation Assay-Transfluor Assay
as §1, with “Devices (MDS Analytical Technologies).” for “Devices.”, “U2OS” for “U2OS WT”, “#3” for “#37”
Using a high content screening approach (Molecular Devices Image Express), receptor activity was measured by assessment of the relocalization of beta-aiTestin GFP in response to stimulation of Edg-1 by S1P. Specifically, Edg-1 Transfluor U2OS Clone #3 cells were plated at a density of 6250 cells in 44 μL medium per well in 384 well plastic bottomed microtiter plates (BD Falcon) and incubated overnight at 37° C./5% CO2. Prior to screening, compounds were dissolved in 100% dimethyl sulfoxide (DMSO) to a final stock concentration of 10 mM. Compounds were then serially diluted at 10× final concentration in Edg-1 Transfluor cell growth medium containing 6% DMSO using the BioMek instrument. […]

T1 sequence (P21453 whole entry): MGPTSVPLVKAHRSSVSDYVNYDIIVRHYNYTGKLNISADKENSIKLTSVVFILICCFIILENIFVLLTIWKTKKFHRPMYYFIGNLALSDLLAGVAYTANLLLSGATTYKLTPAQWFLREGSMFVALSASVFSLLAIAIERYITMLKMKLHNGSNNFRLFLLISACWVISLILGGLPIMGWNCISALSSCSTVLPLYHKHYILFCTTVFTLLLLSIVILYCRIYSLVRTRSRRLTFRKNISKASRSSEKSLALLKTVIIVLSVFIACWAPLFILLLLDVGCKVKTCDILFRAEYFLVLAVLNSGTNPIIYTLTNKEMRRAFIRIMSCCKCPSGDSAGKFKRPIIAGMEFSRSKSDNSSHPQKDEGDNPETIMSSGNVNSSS

Structure (SMILES) | inhibition at 3.5 µM
CCn1c(C(C)(C)NS(=O)(=O)c2ccc(F)cc2)nc2cnc(C3CC3)cc21 [Example 186, 4-Fluoro-N-[1-(6-cyclopropyl-1-ethyl-1H-imidazo[4,5-c]pyridin-2-yl)-1-methyl-ethyl]-benzenesulfonamide] | 56.5%
CCn1c([C@@H](C)NS(=O)(=O)c2ccc(C(=O)OC)n2C)nc2ccc(C(F)(F)F)cc21 [Example 40, (R)-methyl 5-(N-(1-(1-ethyl-6-(trifluoromethyl)-1H-benzo[d]imidazol-2-yl)ethyl)sulfamoyl)-1-methyl-1H-pyrrole-2-carboxylate] | 97.5%
CCn1c([C@@H](C)NS(=O)(=O)c2ccc(F)c(CN)c2)nc2ccc(C(F)(F)F)cc21 [Example 134, 3-(Aminomethyl)-N-[(1R)-1-[1-ethyl-6-(trifluoromethyl)-1H-benzimidazol-2-yl]ethyl]-4-fluorobenzenesulfonamide] | 95%
CCn1c([C@@H](C)NS(=O)(=O)c2ccc(NC)nc2)nc2ccc(C(F)(F)F)cc21 [Example 182, N-{(1R)-1-[1-Ethyl-6-(trifluoromethyl)-1H-benzimidazol-2-yl]ethyl}-6-(methylamino)pyridine-3-sulfonamide] | 92.5%
CCn1c([C@@H](C)NS(=O)(=O)c2ccc(C(=O)NC)nc2)nc2ccc(C(F)(F)F)cc21 [Example 172, (R)-5-[1-(1-Ethyl-6-trifluoromethyl-1H-benzoimidazol-2-yl)-ethylsulfamoyl]-pyridine-2-carboxylic acid methylamide] | 69.1%
CCn1c(C(C)(C)NS(=O)(=O)c2ccc(F)cc2)nc2ccc(C(F)(F)F)cc21 [Example 137, N-[1-(1-Ethyl-6-trifluoromethyl-1H-benzoimidazol-2-yl)-1-methyl-ethyl]-4-fluoro-benzenesulfonamide] | 88.8%
CCn1c(C(C)(C)NS(=O)(=O)c2ccc(C#N)nc2)nc2ccc(C(F)(F)F)cc21 [Example 140, 6-Cyano-N-(2-(1-ethyl-6-(trifluoromethyl)-1H-0 benzo[d]imidazol-2-yl)propan-2-yl)pyridine-3-sulfonamide] | 82.9%
CCn1c(C2(NS(=O)(=O)c3ccc(F)cc3)CCC2)nc2ccc(C(F)(F)F)cc21 [Example 143, N-[1-(1-Ethyl-6-trifluoromethyl-1H-benzoimidazol-2-yl)-cyclobutyl]-4-fluoro-benzenesulfonamide] | 84.7%
CCn1c([C@@H](C)NS(=O)(=O)c2cccc(F)c2)nc2ccc(C(F)(F)F)cc21 [Example 120, N-{(1R)-1-[1-Ethyl-6-(trifluoromethyl)-1H-benzimidazol-2-yl]ethyl}-3-fluorobenzenesulfonamide] | 90.9%
CCn1c([C@@H](C)NS(=O)(=O)c2ccc(C(N)=O)nc2)nc2ccc(C(F)(F)F)cc21 [Example 106, (R)-5-(N-(1-(1-Ethyl-6-(trifluoromethyl)-1H-benzo[d]imidazol-2-yl)ethyl)sulfamoyl)picolinamide] | 93.3%
CCn1c([C@@H](C)NS(=O)(=O)c2ccc(C(N)=O)nc2)nc2cnc(OC)cc21 [Example 152] | 91.8%
CCn1c([C@@H](C)NS(=O)(=O)c2ccc(C#N)cn2)nc2ccc(C(F)(F)F)cc21 [Example 114, (R)-5-Cyano-N-(1-(1-ethyl-6-(trifluoromethyl)-1H-benzo[d]imidazol-2-yl)ethyl)pyridine-2-sulfonamide] | 72%

Results, then the molecule that gave them:

inhibition at 3.5 µM | Structure (SMILES)
84.6% | CCn1c([C@H](C)NS(=O)(=O)c2ccc(Cl)cc2)nc2ccc(C(F)(F)F)cc21 [Example 100, 4-Chloro-N-{(1S)-1-[1-ethyl-6-(trifluoromethyl)-1H-benzimidazol-2-yl]ethyl}benzenesulfonamide]
84.8% | CCn1c([C@@H](C)NS(=O)(=O)c2ccc(Cl)cc2)nc2ccc(C(F)(F)F)cc21 [Example 9, 4-Chloro-N-{(1R)-1-[1-ethyl-6-(trifluoromethyl)-1H-benzimidazol-2-yl]ethyl} benzene-sulfonamide]
91.1% | CCn1c([C@@H](C)NS(=O)(=O)c2ccc(C#N)cc2)nc2ncc(C(F)(F)F)cc21 [Example 180, 4-Cyano-N-{(1R)-1-[1-ethyl-6-(trifluoromethyl)-1H-imidazo[4,5-b]pyridin-2-yl]ethyl}benzenesulfonamide]
64.1% | CCn1c([C@@H](C)NS(=O)(=O)c2ccc(CC(C)C)cc2)nc2ccc(C(F)(F)F)cc21 [Example 116, N-{(1R)-1-[1-Ethyl-6-(trifluoromethyl)-1H-benzimidazol-2-yl]ethyl}-4-isobutylbenzenesulfonamide]
96% | CCn1c([C@@H](C)NS(=O)(=O)c2ccc(Cl)cc2)nc2cc(F)c(Cl)cc21 [Example 56, 4-Chloro-N-[(1R)-1-(6-chloro-1-ethyl-5-fluoro-1H-benzimidazol-2-yl)ethyl]benzenesulfonamide]
87.4% | CCn1c([C@@H](C)NS(=O)(=O)c2ccc(C#N)cc2)nc2ccc(C(F)(F)F)cc21 [Example 26, 4-Cyano-N-{(1R)-1-[1-ethyl-6-(trifluoromethyl)-1H-benzimidazol-2-yl]ethyl}benzenesulfonamide]

Same assay, conditions: at 3.70 μM (titrated from top concentration 100 μM)

Structure (SMILES) | inhibition at 3.7 µM
CCn1c(C(CC(C)C)NS(=O)(=O)c2ccc(Cl)cc2)nc2ccccc21 (stereo not drawn) [Example 4, 4-Chloro-N-[1-(1-ethyl-1H-benzimidazol-2-yl)-3-methyl-butyl}benzenesulfonamide] | 66.4%
CCn1c([C@@H](C)NS(=O)(=O)c2ccc(Cl)cc2)nc2cc(Cl)cc(Cl)c21 [Example 58, 4-Chloro-N-[(1R)-1-(5,7-dichloro-1-ethyl-1H-benzimidazol-2-yl)ethyl]benzenesulfonamide] | 78.2%
CCn1c([C@@H](C)NS(=O)(=O)c2cn(C)c(C)n2)nc2ccc(C(F)(F)F)cc21 [Example 42, N-{(1R)-1-[1-Ethyl-6-(trifluoromethyl)-1H-benzimidazol-2-yl]ethyl}-1,2-dimethyl-1H-imidazole-4-sulfonamide] | 41.3%

Next, values leading:

inhibition at 3.7 µM | Structure (SMILES)
50.6% | CCn1c([C@@H](C)NS(=O)(=O)c2ccc(Cl)cc2)nc2cc(OC(F)(F)F)ccc21 [Example 64, 4-Chloro-N-{(1R)-1-[1-ethyl-5-(trifluoromethoxy)-1H-benzimidazol-2-yl]ethyl}benzenesulfonamide]
72.8% | CCn1c(C(C)NS(=O)(=O)c2ccc(Cl)cc2)nc2ccncc21 (stereo not drawn) [Example 14, 4-Chloro-N-[1-(3-ethyl-3H-imidazo[4,5-c]pyridin-2-yl)ethyl] benzene sulfonamide]
59% | CCn1c(C(NS(=O)(=O)c2ccc(Cl)cc2)C(C)C)nc2ccccc21 (stereo not drawn) [Example 3, 4-Chloro-N-[1-(1-ethyl-1H-benzimidazol-2-yl)-2-methyl-propyl]benzenesulfonamide]
62.3% | CCn1c([C@@H](C)NS(=O)(=O)c2ccc(Cl)cc2)nc2cc(Br)c(C(F)(F)F)cc21 [Example 93, N-{(1R)-1-[5-Bromo-1-ethyl-6-(trifluoromethyl)-1H-benzimidazol-2-yl]ethyl}-4-chlorobenzenesulfonamide]
94.5% | CCn1c(C(C)NS(=O)(=O)c2ccc(Cl)cc2)nc2ccc(C(F)(F)F)cc21 (stereo not drawn) [Example 99, 4-Chloro-N-{1-[1-ethyl-6-(trifluoromethyl)-1H-benzimidazol-2-yl]ethyl}benzenesulfonamide]
88.1% | CC(NS(=O)(=O)c1ccc(Cl)cc1)c1nc2ccccc2n1CC(F)(F)F (stereo not drawn) [Example 23, 4-Chloro-N-{1-[1-(2,2,2-trifluoro-ethyl)-1H-benzimidazol-2-yl]-ethyl}-benzenesulfonamide]
